Laboratory results reported in ChEMBL document CHEMBL5729568, “Ras inhibitors” (2023).

Columns and labels:
[1] = (§1) Biochemical Assay: A variety of Ras proteins may be inhibited by compounds of the present invention (e.g., K-Ras, N-Ras, H-Ras, and mutants thereof at positions 12, 13 and 61, such as G12C, G12D, G12V, G12S, G13C, G13D, and Q61L, and others described herein). The purpose of this biochemical assay is to measure the ability of test compounds to covalently label nucleotide-loaded K-Ras isoforms. […] The sample is incubated at 25? C. for a time period of up to 24 hours prior to quenching by the addition of 10 uL of 5% Formic Acid. Quenched samples are centrifuged at 15000 rpm for 15 minutes in a benchtop centrifuge before injecting a 10 uL aliquot onto a reverse phase C4 column and eluting into the mass spectrometer with an increasing acetonitrile gradient in the mobile phase. Analysis of raw data may be carried out using Waters MassLynx MS software, with % bound calculated from the deconvoluted protein peaks for labeled and unlabeled K-Ras.
[2] = molecular target: T1, GTPase KRas (Homo sapiens, UniProt P01116); experiment: (§2) The purpose of this biochemical assay is to measure the ability of test compounds to covalently label nucleotide-loaded K-Ras isoforms. […] Analysis of raw data may be carried out using Waters MassLynx MS software, with % bound calculated from the deconvoluted protein peaks for labeled and unlabeled K-Ras.
[3] = as §1; remark: listed apart in the source
[4] = as §1; remark: listed apart in the source
[5] = molecular target: T1, GTPase KRas; experiment: as §2; remark: listed apart in the source
[6] = as §1; remark: listed apart in the source
[7] = molecular target: GTPase NRas (Homo sapiens, UniProt P01111); experiment: as §1
[8] = as §1; remark: listed apart in the source
[9] = as §1; remark: listed apart in the source
[10] = as §1; remark: listed apart in the source

Chain of GTPase NRas (P01111 whole entry, looked up): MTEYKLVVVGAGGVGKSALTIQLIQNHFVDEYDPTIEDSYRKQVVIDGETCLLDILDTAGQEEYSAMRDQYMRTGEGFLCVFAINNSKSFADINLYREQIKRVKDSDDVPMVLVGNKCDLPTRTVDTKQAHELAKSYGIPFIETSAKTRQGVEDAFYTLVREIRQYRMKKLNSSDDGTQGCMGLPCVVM

Compound	IC50 [1]	IC50 [2]	IC50 [3]	IC50 [4]	IC50 [5]	IC50 [6]	IC50 [7]	IC50 [8]	IC50 [9]	IC50 [10]
C=CC(=O)N1CC[C@H](C(=O)N(C)[C@H](C(=O)N[C@H]2Cc3cc(O)cc(c3)-c3ccc4c(c3)c(c(-c3ncccc3COC)n4CC)CC(C)(C)COC(=O)[C@@H]3CCCN(N3)C2=O)C(C)C)C1	in the range around 5500 nM	in the range around 5500 nM	–	–	–	–	–	–	–	–
C=CC(=O)N1CC[C@H](C(=O)N(C)[C@H](C(=O)N[C@H]2Cc3cc(O)cc(c3)-c3ccc4c(c3)c(c(-c3nccnc3COC)n4CC)CC(C)(C)COC(=O)[C@@H]3CCCN(N3)C2=O)C(C)C)C1	in the range around 5500 nM	in the range around 5500 nM	–	–	–	–	–	–	–	–
CCn1c(-c2cccnc2COC)c2c3cc(ccc31)-c1cc(O)cc(c1)C[C@H](NC(=O)[C@H](C(C)C)N(C)C(=O)[C@H]1CCN(C(=O)C#CCN(C)C)C1)C(=O)N1CCC[C@H](N1)C(=O)OCC(C)(C)C2	–	–	–	–	in the range around 550 nM	–	–	–	–	–
CCn1c(-c2cccnc2C(C)OC)c2c3cc(ccc31)-c1cccc(c1)C[C@H](NC(=O)[C@H](C(C)C)N(C)C(=O)N1CCC13CN(C(=O)C#CC(C)(C)N(C)C)C3)C(=O)N1CCC[C@H](N1)C(=O)OCC(C)(C)C2 (some centres undefined)	in the range around 55 nM	in the range around 5500 nM	in the range around 550 nM	in the range around 550 nM	in the range around 550 nM	in the range around 550 nM	in the range around 550 nM	in the range around 55 nM	in the range around 550 nM	in the range around 550 nM

Further lines, results first:

IC50 [1]	IC50 [2]	IC50 [3]	IC50 [4]	IC50 [5]	IC50 [6]	IC50 [7]	IC50 [8]	IC50 [9]	IC50 [10]	Compound
–	–	in the range around 550 nM	in the range around 550 nM	in the range around 550 nM	in the range around 550 nM	–	–	–	–	C=CC(=O)N1CCN(C(=O)N(C)[C@H](C(=O)N[C@H]2Cc3cc(O)cc(c3)-c3ccc4c(c3)c(c(-c3ccccc3CN(C)C)n4CC)CC(C)(C)COC(=O)[C@@H]3CCCN(N3)C2=O)C(C)C)CC1
–	in the range around 55 nM	in the range around 550 nM	in the range around 5500 nM	in the range around 5500 nM	in the range around 5500 nM	–	–	–	–	CCn1c(-c2ccccc2CCOC)c2c3cc(ccc31)-c1cc(O)cc(c1)C[C@H](NC(=O)[C@H](C(C)C)N(C)C(=O)[C@H]1CCN(C(=O)C#CCN(C)C)C1)C(=O)N1CCC[C@H](N1)C(=O)OCC(C)(C)C2
